Here are results for 29 compounds from ChEMBL document CHEMBL1152750, “Design, synthesis and structure-activity relationships of 1,3,4-oxadiazole derivatives as novel inhibitors of glycogen synthase kinase-3beta” (Bioorg Med Chem, 2009).

The target in series [1] is Glycogen synthase kinase-3 beta (Homo sapiens, UniProt P49841). Description: Inhibition of human GSK3-beta.
In series [2] the target is Cyclin-dependent kinase 1 (Homo sapiens, UniProt P06493). Description: Inhibition of CDK1.
In series [3] the target is Receptor tyrosine-protein kinase erbB-2 (Homo sapiens, UniProt P04626). Description: Inhibition of HER2.
Series [4] deals with Proto-oncogene tyrosine-protein kinase Src (Homo sapiens, UniProt P12931). Kind of series: Inhibition of SRC.
Series [5] addresses Tyrosine-protein kinase Lck (Homo sapiens, UniProt P06239). Kind of series: Inhibition of Lck.
For series [6], the target named is Angiopoietin-1 receptor (Homo sapiens, UniProt Q02763). Kind of series: Inhibition of Tie2.
The target in series [7] is Mast/stem cell growth factor receptor Kit (Homo sapiens, UniProt P10721). Kind of series: Inhibition of cKit.
For series [8], the target named is Hepatocyte growth factor receptor (Homo sapiens, UniProt P08581). Kind of series: Inhibition of cMet.
The nature of series [9]: Inhibition of VEGFR.
In series [10] the target is Fibroblast growth factor receptor 3 (Homo sapiens, UniProt P22607). Kind of series: Inhibition of FGFR3.
Series [11] concerns the target Aurora kinase B (Homo sapiens, UniProt Q96GD4). Kind of series: Inhibition of Aurora B.
The target in series [12] is Dual specificity mitogen-activated protein kinase kinase 1 (Homo sapiens, UniProt Q02750). Kind of series: Inhibition of MEK1.
In series [13] the target is Serine/threonine-protein kinase B-raf (Homo sapiens, UniProt P15056). Kind of series: Inhibition of BRAF.
Series [14] concerns the target Mitogen-activated protein kinase 3 (Homo sapiens, UniProt P27361). Description: Inhibition of ERK1.
The nature of series [15]: Inhibition of PKA expressed in Escherichia coli.
The target of series [16] is Cyclin-dependent kinase 2 (Homo sapiens, UniProt P24941). Description: Inhibition of CDK2.
For series [17], the target named is Cyclin-dependent kinase 5 (Homo sapiens, UniProt Q00535). Kind of series: Inhibition of CDK5.
Series [18] addresses Mitogen-activated protein kinase 14 (Homo sapiens, UniProt Q16539). Description: Inhibition of p38alpha.
Series [19] deals with Mitogen-activated protein kinase 8 (Homo sapiens, UniProt P45983). Description: Inhibition of JNK1.
For series [20], the target named is Inhibitor of nuclear factor kappa-B kinase subunit beta (Homo sapiens, UniProt O14920). Description: Inhibition of IKK-beta.
The target of series [21] is Mitogen-activated protein kinase kinase kinase 1 (Homo sapiens, UniProt Q13233). Kind of series: Inhibition of MEKK1.
The target in series [22] is Protein kinase C theta type (Homo sapiens, UniProt Q04759). Kind of series: Inhibition of PKCtheta.
Series [23] deals with Casein kinase I isoform delta (Homo sapiens, UniProt P48730). Kind of series: Inhibition of CK1delta expressed in Escherichia coli.
A short description of series [24]: Total clearance in rat at 0.1 mg/kg, iv. Further details: dose 0.1 mg/kg, route intravenous. As to conditions: in vivo. It counts as ADME, organism-based.
The subject of series [25] is Rattus norvegicus. Description: Volume of distribution at steady state in rat […]. It counts as ADME, organism-based. As to conditions: in vivo.
Series [26] in a line: AUC in rat at 1 mg/kg, po. It counts as ADME, organism-based. Set-up: dose 1 mg/kg, route oral. As to conditions: plasma.
The nature of series [27]: Oral bioavailability in rat at 1 mg/kg. In kind it is ADME, organism-based. As to conditions: in vivo.

Chain of Glycogen synthase kinase-3 beta (P49841 whole entry): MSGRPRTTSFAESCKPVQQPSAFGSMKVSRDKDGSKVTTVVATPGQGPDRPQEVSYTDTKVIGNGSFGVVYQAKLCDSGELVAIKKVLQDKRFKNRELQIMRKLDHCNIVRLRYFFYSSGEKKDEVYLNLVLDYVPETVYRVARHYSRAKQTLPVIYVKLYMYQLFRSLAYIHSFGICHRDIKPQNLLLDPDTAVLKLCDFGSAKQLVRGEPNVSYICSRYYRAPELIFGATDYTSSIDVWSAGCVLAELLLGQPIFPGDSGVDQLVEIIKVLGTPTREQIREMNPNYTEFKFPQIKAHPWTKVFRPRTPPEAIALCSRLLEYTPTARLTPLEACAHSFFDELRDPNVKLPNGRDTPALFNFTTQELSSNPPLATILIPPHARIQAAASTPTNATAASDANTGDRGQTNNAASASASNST
Chain of Receptor tyrosine-protein kinase erbB-2 (P04626 whole entry): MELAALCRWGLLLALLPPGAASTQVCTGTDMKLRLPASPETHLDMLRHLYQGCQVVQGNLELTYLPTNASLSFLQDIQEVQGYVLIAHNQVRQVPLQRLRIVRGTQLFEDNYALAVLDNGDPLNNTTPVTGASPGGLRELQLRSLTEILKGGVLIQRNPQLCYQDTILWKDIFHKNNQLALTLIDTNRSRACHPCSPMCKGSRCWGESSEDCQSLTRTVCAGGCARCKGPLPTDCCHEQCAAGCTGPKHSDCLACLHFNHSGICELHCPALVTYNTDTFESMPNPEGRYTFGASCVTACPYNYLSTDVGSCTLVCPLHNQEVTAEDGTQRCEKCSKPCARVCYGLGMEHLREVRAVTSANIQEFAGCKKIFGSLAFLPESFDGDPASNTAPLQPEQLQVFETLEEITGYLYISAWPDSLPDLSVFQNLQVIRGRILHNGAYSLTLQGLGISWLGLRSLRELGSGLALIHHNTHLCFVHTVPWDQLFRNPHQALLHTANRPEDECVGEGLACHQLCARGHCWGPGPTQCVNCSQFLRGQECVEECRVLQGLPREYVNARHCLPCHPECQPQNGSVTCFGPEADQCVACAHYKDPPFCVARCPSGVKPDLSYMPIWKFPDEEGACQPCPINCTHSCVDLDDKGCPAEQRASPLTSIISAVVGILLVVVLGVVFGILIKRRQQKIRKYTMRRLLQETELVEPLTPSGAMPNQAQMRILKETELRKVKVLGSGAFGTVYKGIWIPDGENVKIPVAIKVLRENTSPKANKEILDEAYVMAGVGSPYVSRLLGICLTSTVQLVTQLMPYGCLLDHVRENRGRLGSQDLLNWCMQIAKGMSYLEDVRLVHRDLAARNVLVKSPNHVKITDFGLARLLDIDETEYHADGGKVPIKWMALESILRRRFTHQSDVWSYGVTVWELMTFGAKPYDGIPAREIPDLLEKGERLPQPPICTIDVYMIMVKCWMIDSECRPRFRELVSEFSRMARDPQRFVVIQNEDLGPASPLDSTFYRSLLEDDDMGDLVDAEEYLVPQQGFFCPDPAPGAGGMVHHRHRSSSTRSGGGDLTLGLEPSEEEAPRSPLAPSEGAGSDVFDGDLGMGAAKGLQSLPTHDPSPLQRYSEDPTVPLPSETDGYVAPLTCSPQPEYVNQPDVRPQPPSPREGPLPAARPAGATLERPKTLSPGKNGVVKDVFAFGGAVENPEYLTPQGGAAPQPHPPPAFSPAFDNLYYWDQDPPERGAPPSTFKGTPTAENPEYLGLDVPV
Chain of Fibroblast growth factor receptor 3 (P22607 whole entry): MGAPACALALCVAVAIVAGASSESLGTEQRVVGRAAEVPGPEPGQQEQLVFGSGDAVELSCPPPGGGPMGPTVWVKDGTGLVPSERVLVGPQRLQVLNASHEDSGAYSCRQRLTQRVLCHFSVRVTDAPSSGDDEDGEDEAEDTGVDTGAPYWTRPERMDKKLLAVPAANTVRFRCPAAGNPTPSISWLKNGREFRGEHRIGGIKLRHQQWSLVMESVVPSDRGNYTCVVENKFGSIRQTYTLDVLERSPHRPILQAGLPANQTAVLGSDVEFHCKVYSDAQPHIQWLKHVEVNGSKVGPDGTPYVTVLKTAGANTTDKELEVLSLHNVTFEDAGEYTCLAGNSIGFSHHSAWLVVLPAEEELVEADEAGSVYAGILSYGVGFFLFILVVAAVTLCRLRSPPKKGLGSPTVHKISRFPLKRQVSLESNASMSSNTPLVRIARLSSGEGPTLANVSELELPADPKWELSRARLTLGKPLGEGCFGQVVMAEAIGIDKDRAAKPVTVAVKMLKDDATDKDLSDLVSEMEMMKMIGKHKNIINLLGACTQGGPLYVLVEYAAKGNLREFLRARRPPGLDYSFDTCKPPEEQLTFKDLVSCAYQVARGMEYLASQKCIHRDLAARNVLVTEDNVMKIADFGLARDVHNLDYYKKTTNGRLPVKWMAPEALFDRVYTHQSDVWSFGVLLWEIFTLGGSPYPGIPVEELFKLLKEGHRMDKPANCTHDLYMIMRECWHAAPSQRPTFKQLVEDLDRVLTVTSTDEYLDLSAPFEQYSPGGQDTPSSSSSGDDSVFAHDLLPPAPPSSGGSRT
Chain of Protein kinase C theta type (Q04759 whole entry, canonical isoform): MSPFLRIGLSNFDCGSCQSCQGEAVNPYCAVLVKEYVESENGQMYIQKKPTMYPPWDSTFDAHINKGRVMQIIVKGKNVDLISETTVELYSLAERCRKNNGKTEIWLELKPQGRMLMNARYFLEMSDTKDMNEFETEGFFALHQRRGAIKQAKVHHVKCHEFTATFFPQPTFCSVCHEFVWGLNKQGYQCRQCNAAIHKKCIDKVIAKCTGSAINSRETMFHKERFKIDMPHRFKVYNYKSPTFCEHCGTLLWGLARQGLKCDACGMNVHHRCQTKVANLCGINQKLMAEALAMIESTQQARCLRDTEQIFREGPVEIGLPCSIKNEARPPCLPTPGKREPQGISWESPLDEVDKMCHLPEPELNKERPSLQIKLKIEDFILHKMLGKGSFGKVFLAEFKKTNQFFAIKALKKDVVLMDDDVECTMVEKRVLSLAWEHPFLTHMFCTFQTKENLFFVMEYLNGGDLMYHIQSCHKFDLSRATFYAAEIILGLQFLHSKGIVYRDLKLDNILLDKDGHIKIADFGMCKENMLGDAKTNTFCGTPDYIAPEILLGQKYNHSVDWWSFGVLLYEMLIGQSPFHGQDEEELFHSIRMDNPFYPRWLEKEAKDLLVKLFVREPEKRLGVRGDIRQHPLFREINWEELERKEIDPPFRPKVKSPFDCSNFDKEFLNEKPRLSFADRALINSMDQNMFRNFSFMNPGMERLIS
Chain of Mitogen-activated protein kinase 3 (P27361 whole entry): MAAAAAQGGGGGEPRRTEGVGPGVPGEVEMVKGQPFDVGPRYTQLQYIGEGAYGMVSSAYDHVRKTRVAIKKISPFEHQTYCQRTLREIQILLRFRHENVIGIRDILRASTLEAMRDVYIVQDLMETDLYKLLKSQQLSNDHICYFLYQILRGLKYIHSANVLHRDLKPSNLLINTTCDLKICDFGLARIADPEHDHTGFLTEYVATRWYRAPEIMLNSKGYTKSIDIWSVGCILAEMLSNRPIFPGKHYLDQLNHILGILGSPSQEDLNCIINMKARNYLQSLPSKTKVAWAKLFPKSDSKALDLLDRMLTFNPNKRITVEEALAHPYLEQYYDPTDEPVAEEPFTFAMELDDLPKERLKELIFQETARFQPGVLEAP
Chain of Cyclin-dependent kinase 5 (Q00535 whole entry): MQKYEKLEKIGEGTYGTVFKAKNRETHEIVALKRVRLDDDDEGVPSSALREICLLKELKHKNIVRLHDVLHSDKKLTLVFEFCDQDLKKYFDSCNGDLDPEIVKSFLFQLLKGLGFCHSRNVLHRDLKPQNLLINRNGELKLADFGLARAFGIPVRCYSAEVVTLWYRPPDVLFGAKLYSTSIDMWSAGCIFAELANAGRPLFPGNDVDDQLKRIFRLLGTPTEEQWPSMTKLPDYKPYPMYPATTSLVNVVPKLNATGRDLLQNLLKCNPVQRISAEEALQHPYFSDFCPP
Chain of Cyclin-dependent kinase 1 (P06493 whole entry): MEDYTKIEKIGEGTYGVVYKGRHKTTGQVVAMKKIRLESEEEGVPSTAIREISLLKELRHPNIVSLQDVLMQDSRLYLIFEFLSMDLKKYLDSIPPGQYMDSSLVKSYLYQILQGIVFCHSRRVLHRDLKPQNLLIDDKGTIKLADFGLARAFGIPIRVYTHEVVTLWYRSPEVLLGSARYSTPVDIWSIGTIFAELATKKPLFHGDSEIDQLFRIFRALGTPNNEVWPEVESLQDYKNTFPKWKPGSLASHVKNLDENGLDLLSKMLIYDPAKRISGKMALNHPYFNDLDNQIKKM
Chain of Dual specificity mitogen-activated protein kinase kinase 1 (Q02750 whole entry): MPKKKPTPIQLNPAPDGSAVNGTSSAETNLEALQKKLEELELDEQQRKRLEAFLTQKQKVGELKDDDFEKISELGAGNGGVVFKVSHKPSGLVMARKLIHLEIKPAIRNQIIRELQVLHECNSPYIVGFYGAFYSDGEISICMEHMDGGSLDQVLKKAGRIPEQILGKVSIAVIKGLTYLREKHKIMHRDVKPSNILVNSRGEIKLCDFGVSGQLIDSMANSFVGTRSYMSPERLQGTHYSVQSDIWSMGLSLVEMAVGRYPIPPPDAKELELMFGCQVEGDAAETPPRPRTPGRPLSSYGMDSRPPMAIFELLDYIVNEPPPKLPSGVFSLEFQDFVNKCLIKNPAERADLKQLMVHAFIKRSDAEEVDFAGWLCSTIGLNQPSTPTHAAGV
Chain of Casein kinase I isoform delta (P48730 whole entry, canonical isoform): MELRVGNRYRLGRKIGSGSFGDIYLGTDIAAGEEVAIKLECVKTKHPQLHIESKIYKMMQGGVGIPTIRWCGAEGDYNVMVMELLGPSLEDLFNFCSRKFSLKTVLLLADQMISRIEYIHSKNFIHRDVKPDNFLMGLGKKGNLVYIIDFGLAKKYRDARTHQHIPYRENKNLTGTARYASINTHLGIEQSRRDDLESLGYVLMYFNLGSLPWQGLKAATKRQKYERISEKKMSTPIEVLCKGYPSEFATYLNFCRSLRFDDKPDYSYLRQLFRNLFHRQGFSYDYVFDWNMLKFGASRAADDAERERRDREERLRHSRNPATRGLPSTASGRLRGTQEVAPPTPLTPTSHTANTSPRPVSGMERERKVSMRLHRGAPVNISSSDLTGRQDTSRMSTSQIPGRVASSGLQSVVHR

For `Fc1cccc(CNc2nnc(-c3ccc4c(c3)CCO4)o2)c1`, in [1], half-maximal inhibition (IC50) was put at 330 nM.

As to `Fc1cccc(COc2nnc(-c3ccc4c(c3)CCO4)o2)c1`, in [1], the IC50 (as a rule, the concentration at which inhibition is half-maximal) is > 10000 nM.

Take `c1ccc(CSc2nnc(-c3ccc4c(c3)CCO4)o2)cc1`: the concentration for half-maximal inhibition (IC50) in series [1] turned out to be 210 nM.

In turn, `Cn1cnc2ccc(-c3nnc(SCc4cccc(C(F)(F)F)c4)o3)cc21` returned a concentration for half-maximal inhibition (IC50) in series [1] of 9.4 nM.

Take `O=[N+]([O-])c1ccc(NCCNc2ncc(-c3ncc[nH]3)c(-c3ccc(Cl)cc3Cl)n2)nc1`: it took 10 nM to reach half-maximal inhibition in [1] (IC50).

`COc1ccc(CSc2nnc(-c3ccc4[nH]ncc4c3)o2)cc1C(F)(F)F` came in with an IC50 in series [1] of 16 nM.

In turn, `COc1ccc(CSc2nnc(-c3ccc4ncccc4c3)o2)cc1C(F)(F)F` came in with an IC50 in series [1] of 18 nM.

Compound `COc1ccc(-c2coc3ccc(-c4nnc(SCc5ccc(OC)c(C(F)(F)F)c5)o4)cc23)cc1` came in with an IC50 in series [1] of 25 nM.

The compound `N#Cc1cccc(CSc2nnc(-c3ccc4c(c3)CCO4)o2)c1` had a half-inhibitory concentration (IC50) in [1] of 91 nM.

In series [1], `COc1ccc(CSc2nnc(-c3ccc4c(c3)CCO4)o2)cc1Cl` displayed an IC50 of 13 nM.

For `COc1ccc(CSc2nnc(-c3ccc4c(c3)CCO4)o2)cc1C#N`, the IC50 in series [1] worked out at 28 nM.

As for `Fc1cccc(CSc2nnc(-c3ccc4c(c3)CCO4)o2)c1`, the midpoint of inhibition in series [1], the IC50, lay at 54 nM.

For `Fc1cccc(CCc2nnc(-c3ccc4c(c3)CCO4)o2)c1`, in series [1], half-maximal inhibition (IC50) was put at 340 nM.

`COc1ccc(CSc2nnc(-c3ccc4c(c3)CCO4)o2)cc1`: in series [1], the IC50 was determined as 220 nM.

Compound `Clc1cccc(CSc2nnc(-c3ccc4c(c3)CCO4)o2)c1` yielded an IC50 in series [1] of 94 nM.

`Clc1ccc(CSc2nnc(-c3ccc4c(c3)CCO4)o2)cc1`: the IC50 in series [1] worked out at 280 nM.

In [1], `COC(=O)c1cccc(CSc2nnc(-c3ccc4c(c3)CCO4)o2)c1` returned an IC50 of 630 nM.

`COc1ccc(CSc2nnc(-c3ccc4occc4c3)o2)cc1C(F)(F)F` gave an IC50 in series [1] of 4.9 nM.

Take `COc1ccc(-c2coc3ccc(-c4nnc(SCc5cccc(C(F)(F)F)c5)o4)cc23)cc1`: in series [1], the IC50 is 8.4 nM.

The compound `COc1ccc(-c2coc3ccc(-c4nnc(SCc5cccc(C#N)c5)o4)cc23)cc1` yielded an IC50 in [1] of 3.5 nM.

`COc1ccc(-n2cnc3ccc(-c4nnc(SCc5ccc(OC)c(C(F)(F)F)c5)o4)cc32)cc1` displayed an IC50 in [1] of 8.6 nM.

`FC(F)(F)c1cccc(CSc2nnc(-c3ccc4c(c3)CCO4)o2)c1`: in series [1], the concentration for half-maximal inhibition (IC50) turned out to be 68 nM.

`COc1ccc(CSc2nnc(-c3ccc4ncsc4c3)o2)cc1C(F)(F)F`: 3.1 nM corresponded to half-maximal inhibition in [1] (IC50).

With `COc1ccc(CSc2nnc(-c3ccc4c(c3)CCO4)o2)cc1C(F)(F)F`, the half-inhibitory concentration (IC50) in series [1] stood at 5.7 nM.

In series [1], `Clc1ccccc1CSc1nnc(-c2ccc3c(c2)CCO3)o1` registered an IC50 of 200 nM.

Regarding `COc1ccc(-n2cnc3ccc(-c4nnc(SCc5cccc(C(F)(F)F)c5)o4)cc32)cc1`, in series [1], the midpoint of inhibition, the IC50, lay at 2.5 nM.

On to `Fc1cccc(SCc2nnc(-c3ccc4c(c3)CCO4)o2)c1`, for which half-maximal inhibition in series [1] (IC50) required 680 nM.

For the compound `COc1ccc(CSc2nnc(-c3ccc4c(c3)CCO4)o2)cc1F`, the half-maximal inhibitory concentration (IC50) in series [1] stood at 44 nM.

Consider `COc1ccc(-n2cnc3ccc(-c4nnc(SCc5cccc(C#N)c5)o4)cc32)cc1`, for which the concentration for half-maximal inhibition (IC50) was 4600 nM in series [2]; 2.3 nM in [1]; > 10000 nM in series [3]; > 10000 nM in [4]; > 10000 nM in series [5]; > 10000 nM in series [6]. In addition, the IC50 in series [7], in series [8], in [9], in [10], in series [11] and in series [12] was > 10000 nM in each case. For the same compound, the IC50 in series [13], in series [14], in series [15], in series [16], in series [17] and in [18] was > 10000 nM throughout. Further, the 50% inhibitory concentration (IC50) in series [19] is > 10000 nM; in series [20], > 10000 nM; in series [21], 8100 nM; in [22], 3500 nM; in series [23], > 10000 nM. Also, the clearance (usually a measure of how efficiently the substance is removed, as volume per time) in series [24] is 35.6 mL/min/kg. In addition, the Vdss in series [25] is 1.453 L/kg. Besides, the AUC (usually the area under the concentration-time curve, a measure of exposure) in [26] worked out at 7.9 ng·h/mL. In addition, the bioavailability (as a rule, the share of a dose that reaches the circulation, judged against a reference dose that is usually intravenous) in [27] came to 1.7%.
